In patent US11267826B2, “Penicillin-binding protein inhibitors” (priority 2017, dated 2022):

Experiments:
S. aureus ATCC 29213 = assay: Broth microdilution MIC assay, S. aureus; type: cell-based; conditions: Staphylococcus aureus, ATCC29213; broth microdilution, 16-20 hours at 37° C.; read-out: S. aureus 29213 MIC
Protocol: (§1) To determine the ability of test compounds to potentiate the inhibition of the growth of bacterial strains, classic cell based broth microdilution MIC assays were employed. MIC assays are performed according to CLSI methods except where otherwise noted (CLSI, 2011 and CLSI, 2009). The reference strain S. aureus ATCC 29213 and the hyper-permeable E. coli 901C were used to determine the ability of the PBP compounds to inhibit bacterial growth. Briefly, cryo-preserved bacterial cultures of clinical strains are streaked for isolation on appropriate agar medium, in this case Mueller Hinton II agar. Following incubation to allow formation of colonies these plates are sealed with parafilm and stored refrigerated for up to two weeks. For preparation of assay inocula and to ensure low variability, at least 5 colonies are picked from the agar plates with an inoculating loop and aseptically transferred to a culture tube containing 3 mL of Mueller-Hinton Broth (supplemented with divalent cations to required levels based on Manufacturers' certification). The broth culture is grown for 3-5 hours at 37° C. with shaking at 200 rpm. Meanwhile, 2-fold serial dilutions of test compounds are conducted in a 96 well plate with a final volume of 75 μL per well at 2-fold the final desired concentration. After the dilution plates are set up the growing cultures are then diluted in a cuvette containing MH II broth and the optical density is measured at 600 nm. Inocula are diluted such that 75 μL of this culture in Mueller-Hinton Broth results in a starting bacterial concentration of 5×10^5 CFU/mL when added to the dilution plates. The plates are incubated 16-20 hours at 37° C. The MIC is read visually as the lowest concentration well with no bacterial growth.

[1] = system: hyper-permeable E. coli 901C; assay: Broth microdilution MIC assay, hyper-permeable E. coli; type: cell-based; conditions: Escherichia coli, read-out: E. coli 901C MIC
Protocol: as §1

Compound Nc1nc(/C(=N/O)C(=O)N[C@H]2Cc3ccc(O)c(C(=O)O)c3OB2O)cs1 [Example 21, (R,Z)-3-(2-(2-aminothiazol-4-yl)-2-(hydroxyimino)acetamido)-2,7-dihydroxy-3,4-dihydro-2H-benzo[e][1,2]oxaborinine-8-carboxylic Acid] has an MIC (S. aureus ATCC 29213) of 64 to 128 µg/mL and an MIC [1] greater than 128 µg/mL.
Compound CNc1nc(/C(=N/O)C(=O)N(C)[C@H]2Cc3cccc(C(=O)O)c3OB2O)cs1 [Example 22, (R,Z)-2-hydroxy-3-(2-(hydroxyimino)-N-methyl-2-(2-(methylamino)thiazol-4-yl)acetamido)-3,4-dihydro-2H-benzo[e][1,2]oxaborinine-8-carboxylic Acid] has an MIC (S. aureus ATCC 29213) greater than 128 µg/mL and an MIC [1] greater than 128 µg/mL.
CNc1nc(/C(=N/OCc2ccccc2)C(=O)N(C)[C@H]2Cc3cccc(C(=O)O)c3OB2O)cs1 [Example 23, (R,Z)-3-(2-((benzyloxy)imino)-N-methyl-2-(2-(methylamino)thiazol-4-yl)acetamido)-2-hydroxy-3,4-dihydro-2H-benzo[e][1,2]oxaborinine-8-carboxylic Acid] showed an MIC (S. aureus ATCC 29213) greater than 128 µg/mL and an MIC [1] greater than 128 µg/mL.
With Nc1nc(/C(=N/O)C(=O)N[C@H]2Cc3ccc(C=O)c(C(=O)O)c3OB2O)cs1 [Example 24, (R,Z)-3-(2-(2-aminothiazol-4-yl)-2-(hydroxyimino)acetamido)-7-formyl-2-hydroxy-3,4-dihydro-2H-benzo[e][1,2]oxaborinine-8-carboxylic Acid] the MIC (S. aureus ATCC 29213) was 64 to 128 µg/mL and the MIC [1] was greater than 128 µg/mL.
With Nc1nc(/C(=N/O)C(=O)N[C@H]2Cc3ccc(CN4CCCC4)c(C(=O)O)c3OB2O)cs1 [Example 25, (R,Z)-3-(2-(2-aminothiazol-4-yl)-2-(hydroxyimino)acetamido)-2-hydroxy-7-(pyrrolidin-1-ylmethyl)-3,4-dihydro-2H-benzo[e][1,2]oxaborinine-8-carboxylic Acid] the MIC (S. aureus ATCC 29213) was less than 64 µg/mL and the MIC [1] was greater than 128 µg/mL.
Compound Nc1nc(/C(=N/O)C(=O)N[C@H]2Cc3ccc(/C=C/C(=O)O)c(C(=O)O)c3OB2O)cs1 [Example 27, (R)-3-((Z)-2-(2-aminothiazol-4-yl)-2-(hydroxyimino)acetamido)-7-((E)-2-carboxyvinyl)-2-hydroxy-3,4-dihydro-2H-benzo[e][1,2]oxaborinine-8-carboxylic Acid] has an MIC (S. aureus ATCC 29213) greater than 128 µg/mL and an MIC [1] of 64 to 128 µg/mL.
Compound Nc1nc(/C(=N/O)C(=O)N[C@H]2Cc3ccc(CCC(=O)O)c(C(=O)O)c3OB2O)cs1 [Example 28, (R,Z)-3-(2-(2-aminothiazol-4-yl)-2-(hydroxyimino)acetamido)-7-(2-carboxyethyl)-2-hydroxy-3,4-dihydro-2H-benzo[e][1,2]oxaborinine-8-carboxylic Acid] has an MIC (S. aureus ATCC 29213) greater than 128 µg/mL and an MIC [1] greater than 128 µg/mL.
Nc1nc(/C(=N/O)C(=O)N[C@H]2Cc3cc(F)cc(C(=O)O)c3OB2O)cs1 [Example 32, (R,Z)-3-(2-(2-aminothiazol-4-yl)-2-(hydroxyimino)acetamido)-6-fluoro-2-hydroxy-3,4-dihydro-2H-benzo[e][1,2]oxaborinine-8-carboxylic Acid] was tested, and the MIC (S. aureus ATCC 29213) was less than 64 µg/mL and the MIC [1] was less than 64 µg/mL.
In the case of Nc1nc(/C(=N/O)C(=O)N[C@H]2Cc3cc(CN4CCCC4)cc(C(=O)O)c3OB2O)cs1 [Example 33, (R,Z)-3-(2-(2-aminothiazol-4-yl)-2-(hydroxyimino)acetamido)-2-hydroxy-6-(pyrrolidin-1-ylmethyl)-3,4-dihydro-2H-benzo[e][1,2]oxaborinine-8-carboxylic Acid], the MIC (S. aureus ATCC 29213) is reported as less than 64 µg/mL and the MIC [1] is reported as greater than 128 µg/mL.
Nc1nc(/C(=N/O)C(=O)N[C@H]2Cc3ccc(F)c(C(=O)O)c3OB2O)cs1 [Example 39, (R,Z)-3-(2-(2-aminothiazol-4-yl)-2-(hydroxyimino)acetamido)-7-fluoro-2-hydroxy-3,4-dihydro-2H-benzo[e][1,2]oxaborinine-8-carboxylic Acid] showed an MIC (S. aureus ATCC 29213) of less than 64 µg/mL and an MIC [1] of less than 64 µg/mL.
For Nc1nc(/C(=N/O)C(=O)N[C@H]2Cc3c(F)c(F)cc(C(=O)O)c3OB2O)cs1 [Example 40, (R,Z)-3-(2-(2-aminothiazol-4-yl)-2-(hydroxyimino)acetamido)-5,6-difluoro-2-hydroxy-3,4-dihydro-2H-benzo[e][1,2]oxaborinine-8-carboxylic Acid], the MIC (S. aureus ATCC 29213) was less than 64 µg/mL and the MIC [1] was greater than 128 µg/mL.
Nc1nc(/C(=N/O)C(=O)N[C@H]2Cc3cc(O)cc(C(=O)O)c3OB2O)cs1 [Example 43, (R,Z)-3-(2-(2-aminothiazol-4-yl)-2-(hydroxyimino)acetamido)-2,6-dihydroxy-3,4-dihydro-2H-benzo[e][1,2]oxaborinine-8-carboxylic Acid] gave an MIC (S. aureus ATCC 29213) of less than 64 µg/mL and an MIC [1] of 64 to 128 µg/mL.
Nc1nc(/C(=N/O)C(=O)N[C@H]2Cc3cc(OC(F)(F)F)cc(C(=O)O)c3OB2O)cs1 [Example 45, (R,Z)-3-(2-(2-aminothiazol-4-yl)-2-(hydroxyimino)acetamido)-2-hydroxy-6-(trifluoromethoxy)-3,4-dihydro-2H-benzo[e][1,2]oxaborinine-8-carboxylic Acid] gave an MIC (S. aureus ATCC 29213) of less than 64 µg/mL and an MIC [1] of less than 64 µg/mL.
Compound Nc1nc(/C(=N/OC2CCNCC2)C(=O)N[C@H]2Cc3cccc(C(=O)O)c3OB2O)cs1 [Example 51, (R,Z)-3-(2-(2-aminothiazol-4-yl)-2-((piperidin-4-yloxy)imino)acetamido)-2-hydroxy-3,4-dihydro-2H-benzo[e][1,2]oxaborinine-8-carboxylic Acid] has an MIC (S. aureus ATCC 29213) greater than 128 µg/mL and an MIC [1] of 64 to 128 µg/mL.
Nc1nc(/C(=N/OC2CNC2)C(=O)N[C@H]2Cc3cccc(C(=O)O)c3OB2O)cs1 [Example 53, (R,Z)-3-(2-(2-aminothiazol-4-yl)-2-((azetidin-3-yloxy)imino)acetamido)-2-hydroxy-3,4-dihydro-2H-benzo[e][1,2]oxaborinine-8-carboxylic Acid] was tested, and the MIC (S. aureus ATCC 29213) was greater than 128 µg/mL and the MIC [1] was 64 to 128 µg/mL.
In the case of NCCNC(=O)CO/N=C(\C(=O)N[C@H]1Cc2cccc(C(=O)O)c2OB1O)c1csc(N)n1 [Example 54, (R,Z)-3-(2-((2-((2-aminoethyl)amino)-2-oxoethoxy)imino)-2-(2-aminothiazol-4-yl)acetamido)-2-hydroxy-3,4-dihydro-2H-benzo[e][1,2]oxaborinine-8-carboxylic Acid], the MIC (S. aureus ATCC 29213) is reported as greater than 128 µg/mL and the MIC [1] is reported as less than 64 µg/mL.
CC(C)(O/N=C(\C(=O)N[C@H]1Cc2cccc(C(=O)O)c2OB1O)c1csc(N)n1)C(=O)N[C@@H](CCC(=O)O)C(=O)O [Example 77, (2-((((Z)-1-(2-aminothiazol-4-yl)-2-(((R)-8-carboxy-2-hydroxy-3,4-dihydro-2H-benzo[e][1,2]oxaborinin-3-yl)amino)-2-oxoethylidene)amino)oxy)-2-methylpropanoyl)-L-glutamic Acid] was tested, and the MIC (S. aureus ATCC 29213) was greater than 128 µg/mL and the MIC [1] was less than 64 µg/mL.
For COc1cc2c(c(C(=O)O)c1)OB(O)[C@@H](NC(=O)/C(=N\OC(C)(C)C(=O)O)c1csc(N)n1)C2 [Example 79, (R,Z)-3-(2-(2-aminothiazol-4-yl)-2-(((2-carboxypropan-2-yl)oxy)imino)acetamido)-2-hydroxy-6-methoxy-3,4-dihydro-2H-benzo[e][1,2]oxaborinine-8-carboxylic Acid], the MIC (S. aureus ATCC 29213) was greater than 128 µg/mL and the MIC [1] was less than 64 µg/mL.
Work on CC(C)(O/N=C(\C(=O)N[C@H]1Cc2cc(O)cc(C(=O)O)c2OB1O)c1csc(N)n1)C(=O)O [Example 80, (R,Z)-3-(2-(2-aminothiazol-4-yl)-2-(((2-carboxypropan-2-yl)oxy)imino)acetamido)-2,6-dihydroxy-3,4-dihydro-2H-benzo[e][1,2]oxaborinine-8-carboxylic Acid] yielded an MIC (S. aureus ATCC 29213) greater than 128 µg/mL and an MIC [1] of less than 64 µg/mL.
COc1cc2c(c(C(=O)O)c1)OB(O)[C@@H](NC(=O)/C(=N\OC(C)(C)C(N)=O)c1csc(N)n1)C2 [Example 81, (R,Z)-3-(2-(((1-amino-2-methyl-1-oxopropan-2-yl)oxy)imino)-2-(2-aminothiazol-4-yl)acetamido)-2-hydroxy-6-methoxy-3,4-dihydro-2H-benzo[e][1,2]oxaborinine-8-carboxylic Acid] was tested, and the MIC (S. aureus ATCC 29213) was greater than 128 µg/mL and the MIC [1] was less than 64 µg/mL.
O=C(N[C@H]1Cc2cccc(C(=O)O)c2OB1O)/C(=N\O)c1ccccc1 [Example 83, (R,Z)-2-hydroxy-3-(2-(hydroxyimino)-2-phenylacetamido)-3,4-dihydro-2H-benzo[e][1,2]oxaborinine-8-carboxylic Acid] was tested, and the MIC (S. aureus ATCC 29213) was less than 64 µg/mL and the MIC [1] was greater than 128 µg/mL.
Work on Nc1nc(C(=CCCC(=O)O)C(=O)N[C@H]2Cc3cccc(C(=O)O)c3OB2O)cs1 [Example 84, (R)-3-(2-(2-aminothiazol-4-yl)-5-carboxypent-2-enamido)-2-hydroxy-3,4-dihydro-2H-benzo[e][1,2]oxaborinine-8-carboxylic Acid] yielded an MIC (S. aureus ATCC 29213) greater than 128 µg/mL and an MIC [1] of less than 64 µg/mL.
Compound Nc1nc(C(=CCCO)C(=O)N[C@H]2Cc3cccc(C(=O)O)c3OB2O)cs1 [Example 85, (R)-3-(2-(2-aminothiazol-4-yl)-5-hydroxypent-2-enamido)-2-hydroxy-3,4-dihydro-2H-benzo[e][1,2]oxaborinine-8-carboxylic Acid] has an MIC (S. aureus ATCC 29213) of 64 to 128 µg/mL and an MIC [1] of 64 to 128 µg/mL.
Work on Nc1nc(/C(=C\c2cccnc2)C(=O)N[C@H]2Cc3cccc(C(=O)O)c3OB2O)cs1 [Example 86, (R,E)-3-(2-(2-aminothiazol-4-yl)-3-(pyridin-3-yl)acrylamido)-2-hydroxy-3,4-dihydro-2H-benzo[e][1,2]oxaborinine-8-carboxylic Acid] yielded an MIC (S. aureus ATCC 29213) of 64 to 128 µg/mL and an MIC [1] of less than 64 µg/mL.
